Reference: patent EP3400938B1, “NOVEL N-(1,2,3-TRIAZOLMETHYL)ISATIN AND N-(1,2,3-TRIAZOLMETHYL)-3-HYDROXY-3-ARYLOXINDOLES WITH CYTOTOXIC AND ANTI-TUMOR ACTIVITY” (Universidade de Évora, priority 2017, dated 2018)
Read-outs that look alike come from different tables or passages of the source.

Columns and labels:
[1] = test system: SW480 colon adenocarcinoma cells; test: 24 h MTT cytotoxicity assay, SW480 cell line; assay type: cell-based; conditions: 24h exposure time
Procedure: One of the main strategies for the treatment of cancer is chemotherapy (De Santis et al. 2014). There are two main factors that made the development of new chemotherapeutic agents crucial: the side effects of the current anticancer drugs used in the clinic and the appearance of tumour cell resistance. A first step facing at tackling this challenging goal is the evaluation of the cytotoxic activity of the new synthesized drugs. In our case, cytotoxicity was evaluated by means of the antiproliferative assay MTT, which is a high-throughput method widely used for the screening of new drugs that is based on the ability of the mitochondrial dehydrogenases to reduce a water soluble yellow dye, namely 3-(4,5-dimethylthiazol-2-yl)-2,5-diphenyl tetrazolium bromide, to form a water insoluble blue formazan (McCauley et al., 2013). […] The best inhibition was obtained with (S)-2 (Table 2, entry 2). Overall the (S) series gave better inhibition results. Table 2 IC50 values obtained from MTT assay with a 24h exposure time
Biological Screening Studies 24 h MTT Cytototoxicity Assay - SW480 cell line
Approximately 5 × 10^3 SW480 colon adenocarcinoma cells were cultured in 200 µl culture medium per well (DMEM medium), supplemented with 10% newborn calf serum and 1% amphotericin-penicillin-streptomycin solution in 96-well plates and incubated at 37 °C under a 5% CO2 atmosphere. The cells were grown for 24h and then exposed to different concentrations of the tested drugs (dissolved in culture medium) for 24h. Hydrogen peroxide was used as a positive control. The cells were washed with the culture medium, incubated with MTT (500 µg/ml) for a further period of 3 hours. At the end of the incubation, the medium was removed, then carefully washed with PBS and 200 µl DMSO were added to each well. Absorbance was read at 570 nm in a microplate reader. Four replicates per dose were included. The IC50 values, that is, the concentrations which produced 50% inhibition of cell viability were calculated from MTT data using the GraphPadPrism Software Inc. (version 6.01) (USA).

[2] = test system: DOHH-2; test: 72 h MTT proliferation assay on lymphoma cell lines (DOHH-2); assay type: cell-based; conditions: DOHH-2 (GCB-DLBCL), 72h exposure time, read-out: GCB-DLBC cell lines IC50, DOHH-2
Procedure: (§1) A set of ten compounds was tested against four lymphoma cell lines belonging to Germinal Center B-cell-like Diffuse Large B-Cell lymphoma, GCB-DLBCL and Activated B-Cell-like Diffuse Large B-Cell lymphoma, ABC-DLBCL (Table 3). Compounds were tested in triplicates as single agents, for 72 hours by using a large range of concentrations. […] In particular, ISATIN-BENZYL is the most promising one reaching IC50s of 1 and 5 µM in the OCI-LY-10 and SU-DHL-2 cell lines (Table 3). Table 3. IC50 values obtained from MTT assay with a 72h exposure time on lymphoma cell lines.
(§2) 72 h MTT assay on lymphoma cell lines.
(§3) Compounds were dissolved in dimethyl sulphoxide (DMSO) to obtain a stock concentration of 20 mM.
(§4) Cell lines. The panel of lymphoma cell lines comprised models derived from diffuse large B-cell lymphoma (n. 4) cell lines derived from DLBCL of the germinal center B-cell type (GCB-DLBCL), such as VAL and DOHH-2, and derived of the activated B-cell type (ABC-DLBCL) such as OCI-LY-10 and SU-DHL-2.
(§5) Cells were seeded in 96-well plates (non-tissue culture treated) at a density of 10,000 cells for all cell lines. Each compound was dissolved in dimethyl sulphoxide (DMSO). For treatment of cells, compounds were serially diluted in the appropriate tissue culture medium, at a range of 20 µM - 19 nM following a 1:2 dilution factor and added to cells (in three replicates). Cells were incubated for 72 hours at 37 °C, 5% CO2. DMSO alone was added to negative control (untreated) cells. Wells containing medium only were included on each plate and served as blanks for absorbance readings. MTT (Sigma-Aldrich Chemie GmbH, Buchs, Switzerland) was prepared as a 5 mg/ml stock in PBS and filter-sterilized. MTT solution (22µL) was added to each well and tissue culture plates were incubated at 37°C for 4 hours. Cells were then lysed with 25% SDS lysis buffer and absorbance was read at 570 nm using an AD340 plate reader (Beckman Coulter International SA, Switzerland). Absorbance values were expressed in percentage of proliferating cells in comparison with control cells (control corresponds to 100%).

[3] = test system: VAL; test: 72 h MTT proliferation assay on lymphoma cell lines (VAL); assay type: cell-based; conditions: VAL (GCB-DLBCL), 72h exposure time, read-out: GCB-DLBC cell lines IC50, VAL
Procedure: as §1, §2, §3, §4, §5

[4] = test system: OCI-LY-10; test: 72 h MTT proliferation assay on lymphoma cell lines (OCI-LY-10); assay type: cell-based; conditions: 72h exposure time, read-out: ABC-DLBC cell lines IC50, OCI-LY-10
Procedure: as §1, §2, §3, §4, §5

[5] = test system: SU-DHL-2; test: 72 h MTT proliferation assay on lymphoma cell lines (SU-DHL-2); assay type: cell-based; conditions: SU-DHL-2 (ABC-DLBCL), 72h exposure time, read-out: ABC-DLBC cell lines IC50, SU-DHL-2
Procedure: as §1, §2, §3, §4, §5

[6] = test system: SW480 colon adenocarcinoma cells; conditions: bench-mark value from Xu et al. 2003, SW480; cited from earlier work
[7] = Homo sapiens, OCI-Ly10, OCI-LY-10 (ABC-DLBCL)

For `O=C1N(Cc2cn(Cc3ccccc3)nn2)c2ccccc2C1(O)c1ccccc1` [(R) -1, 1-((1-Benzyl-1H-1,2,3-triazol-4-yl)methyl)-3-hydroxy-3-phenylindolin-2-one], the IC50 ([1]; Homo sapiens, SW480, 24 h) was 82.6 µM, the IC50 ([2]; Homo sapiens) was > 20 µM and the IC50 [3] was > 20 µM. For the same compound, the IC50 [4, 7] was > 20 µM and the IC50 ([5]; Homo sapiens, SU-DHL-2, 72 h) was > 20 µM.

With `O=C1N(Cc2cn(Cc3ccccc3)nn2)c2ccccc2C1(O)c1ccc2ccccc2c1` [(R) -2, 1-((1-Benzyl-1H-1,2,3-triazol-4-yl)methyl)-3-hydroxy-3-(naphthalen-2-yl)indolin-2-one] the IC50 ([1]; Homo sapiens, SW480, 24 h) was 18.6 µM, the IC50 ([2]; Homo sapiens) was > 20 µM and the IC50 [3] was > 20 µM. The IC50 [4, 7] was > 20 µM and the IC50 ([5]; Homo sapiens, SU-DHL-2, 72 h) was > 20 µM.

For `O=C1N(Cc2cn(Cc3ccccc3)nn2)c2ccccc2C1(O)c1ccc(F)cc1` [(R) -3, 1-((1-Benzyl-1H-1,2,3-triazol-4-yl)methyl)-3-(4-fluorophenyl)-3-hydroxyindolin-2-one], the IC50 ([1]; Homo sapiens, SW480, 24 h) was 49.1 µM, the IC50 ([2]; Homo sapiens) was > 20 µM and the IC50 [3] was > 20 µM. The IC50 [4, 7] was > 20 µM and the IC50 ([5]; Homo sapiens, SU-DHL-2, 72 h) was > 20 µM.

Compound `COc1ccc(C2(O)C(=O)N(Cc3cn(Cc4ccccc4)nn3)c3ccccc32)cc1` [(R) -4, 1-((1-Benzyl-1H-1,2,3-triazol-4-yl)methyl)-3-hydroxy-3-(4-methoxyphenyl)indolin-2-one] has an IC50 ([1]; Homo sapiens, SW480, 24 h) of 76.4 µM.

With `O=C1N(Cc2cn(Cc3ccccc3)nn2)c2ccccc2C1(O)c1ccsc1` [(R) -5, 1-((1-Benzyl-1H-1,2,3-triazol-4-yl)methyl)-3-hydroxy-3-(thiophen-3-yl)indolin-2-one] the IC50 [1] was 86.4 µM, the IC50 ([2]; Homo sapiens) was > 20 µM and the IC50 [3] was > 20 µM. For the same compound, the IC50 [4, 7] was > 20 µM and the IC50 ([5]; Homo sapiens, SU-DHL-2, 72 h) was > 20 µM.

In the case of `O=C1N(Cc2cn(Cc3ccccc3)nn2)c2ccccc2C1(O)c1cccc(O)c1` [(R) -6, 1-((1-Benzyl-1H-1,2,3-triazol-4-yl)methyl)-3-hydroxy-3-(3-hydroxyphenyl)indolin-2-one], the IC50 [1] is reported as 210 µM.

Compound `O=C1N(Cc2cn(Cc3ccccc3)nn2)c2ccc(Br)cc2C1(O)c1ccccc1` [(R) -7, 1-((1-Benzyl-1H-1,2,3-triazol-4-yl)methyl)-5-bromo-3-hydroxy-3-phenylindolin-2-one] has an IC50 ([1]; Homo sapiens, SW480, 24 h) of 42.5 µM.

Work on `O=C1N(Cc2cn(Cc3ccccc3)nn2)c2ccccc2C1(O)c1ccccc1` [(S) -1, 1-((1-Benzyl-1H-1,2,3-triazol-4-yl)methyl)-3-hydroxy-3-phenylindolin-2-one] yielded an IC50 [1] of 63 µM.

With `O=C1N(Cc2cn(Cc3ccccc3)nn2)c2ccccc2C1(O)c1ccc2ccccc2c1` [(S) -2, 1-((1-Benzyl-1H-1,2,3-triazol-4-yl)methyl)-3-hydroxy-3-(naphthalen-2-yl)indolin-2-one] the IC50 [1] was 12.8 µM, the IC50 [2] was > 20 µM and the IC50 [3] was > 20 µM. For the same compound, the IC50 ([4]; OCI-LY-10 (ABC-DLBCL)) was > 20 µM and the IC50 [5] was 19 µM.

In the case of `O=C1N(Cc2cn(Cc3ccccc3)nn2)c2ccccc2C1(O)c1ccc(F)cc1` [(S) -3, 1-((1-Benzyl-1H-1,2,3-triazol-4-yl)methyl)-3-(4-fluorophenyl)-3-hydroxyindolin-2-one], the IC50 [1] is reported as 25.9 µM, the IC50 [2] is reported as > 20 µM and the IC50 [3] is reported as > 20 µM. For the same compound, the IC50 ([4]; OCI-LY-10 (ABC-DLBCL)) was > 20 µM and the IC50 [5] was > 20 µM.

For `COc1ccc(C2(O)C(=O)N(Cc3cn(Cc4ccccc4)nn3)c3ccccc32)cc1` [(S) -4, 1-((1-Benzyl-1H-1,2,3-triazol-4-yl)methyl)-3-hydroxy-3-(4-methoxyphenyl)indolin-2-one], the IC50 [1] was 48.9 µM.

With `O=C1N(Cc2cn(Cc3ccccc3)nn2)c2ccccc2C1(O)c1ccsc1` [(S) -5, 1-((1-Benzyl-1H-1,2,3-triazol-4-yl)methyl)-3-hydroxy-3-(thiophen-3-yl)indolin-2-one] the IC50 [1] was 33 µM.

Compound `O=C1N(Cc2cn(Cc3ccccc3)nn2)c2ccccc2C1(O)c1cccc(O)c1` [(S) -6, 1-((1-Benzyl-1H-1,2,3-triazol-4-yl)methyl)-3-hydroxy-3-(3-hydroxyphenyl)indolin-2-one] has an IC50 [1] of 52.8 µM.

For `O=C1N(Cc2cn(Cc3ccccc3)nn2)c2ccc(Br)cc2C1(O)c1ccccc1` [(S) -7, 1-((1-Benzyl-1H-1,2,3-triazol-4-yl)methyl)-5-bromo-3-hydroxy-3-phenylindolin-2-one], the IC50 [1] was 34.1 µM, the IC50 ([2]; Homo sapiens) was 19 µM and the IC50 [3] was > 20 µM. For the same compound, the IC50 [4, 7] was > 20 µM and the IC50 ([5]; Homo sapiens, SU-DHL-2, 72 h) was 19 µM.

With `Cc1ccc(C2(O)C(=O)N(Cc3cn(Cc4ccccc4)nn3)c3ccccc32)cc1` [(S) -8, 1-((1-Benzyl-1H-1,2,3-triazol-4-yl)methyl)-3-hydroxy-3-p-tolylindolin-2-one] the IC50 ([1]; Homo sapiens, SW480, 24 h) was > 200 µM.

In the case of `CCCCn1cc(CN2C(=O)C(O)(c3ccccc3)c3ccccc32)nn1` [(S) -9, 1-((1-Butyl-1H-1,2,3-triazol-4-yl)methyl)-3-hydroxy-3-phenylindolin-2-one], the IC50 ([1]; Homo sapiens, SW480, 24 h) is reported as > 200 µM.

In the case of `COc1cccc2c1C(=O)c1c(O)c3c(c(O)c1C2=O)C[C@@](O)(C(=O)CO)C[C@@H]3O[C@H]1C[C@H](N)[C@H](O)[C@H](C)O1` [Dox, doxorubicin], the IC50 [6] is listed as 65.3 µM.

With `CC(C)[C@H]1CC[C@H](C)C[C@H]1n1cc(CN2C(=O)C(=O)c3ccccc32)nn1` [ISATIN-BENZYL, 1-((1-((1R,2R,5S)-2-Isopropyl-5-methylcyclohexyl)-1H-1,2,3-triazol-4-yl)methyl)indoline-2,3-dione] the IC50 ([1]; Homo sapiens) was 84.4 µM, the IC50 ([2]; Homo sapiens) was > 20 µM and the IC50 [3] was > 20 µM. For the same compound, the IC50 [4, 7] was 1 µM and the IC50 ([5]; Homo sapiens) was 5 µM.

For `O=C1C(=O)N(Cc2cn(Cc3ccccc3)nn2)c2ccccc21` [ISATIN-MENTHOL, 1-((1-Benzyl-1H-1,2,3-triazol-4-yl)methyl)indoline-2,3-dione], the IC50 ([1]; Homo sapiens) was 13.7 µM, the IC50 ([2]; Homo sapiens) was > 20 µM and the IC50 [3] was > 20 µM. The IC50 [4, 7] was 7 µM and the IC50 ([5]; Homo sapiens) was 15 µM.
